Here are results for 17 molecules from US20260125346A1, “Isoquinolinone Derivatives and 4H-Quinolizinone Derivatives and Pharmaceutical Compositions Thereof for the Treatment of Disease” (BeOne Medicines I GmbH, priority 2023, published 2026).

In assay [1] the test system is PI3Kα H1047R mutated cell line T-47D cells. The assay can be described thus: Cell Proliferation Assay (CellTiter-Glo), T-47D. The class given is cell-based. As to conditions: for IC50: Homo sapiens, T47D, 72 h, T-47D, 3 days treatment; for Selectivity: SK-BR-3/T-47D (cell proliferation): cell proliferation IC50 ratio. In a few lines:
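T-47D cells seeded overnight at 3×10^3/well, then exposed 3 days to 9-point 1:3 dilutions, final […] to 1 nM in 0.1% DMSO. CellTiter-Glo luminescence; relative IC50 from percent inhibition versus medium-only and 0.1% DMSO controls, 4-parameter logistic fit.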
In general terms: ATP-based viability assays read luminescence as a measure of living cells.

In assay [2] the test system is WT cell line SK-BR-3. The experiment in a line: Phospho-AKT (Ser473) Inhibition Assay (HTRF), SK-BR-3. Format: cell-based. Particulars: Homo sapiens; SK-BR-3, 1 hour treatment; read-out: p-AKT Inhibition assay (S473) IC50 SK-BR-3. Put shortly:
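SK-BR-3 (PI3Kα WT) cells seeded overnight in MEM with insulin, then treated 1 h with 11-point 1:3 dilutions (10 μM to 0.1 nM, 0.1% DMSO). Lysates read for phospho-AKT Ser473 by HTRF after 4 h antibody incubation at room temperature. IC50 from 4-parameter fit, % inhibition normalized to DMSO (max) and 10 μM GDC0077 (min).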

For assay [3], the system named is WT cell line SK-BR-3. The experiment in a line: Cell Proliferation Assay (CellTiter-Glo), SK-BR-3. Particulars: Homo sapiens, 72 h; SK-BR-3, 3 days treatment. The class given is cell-based. In a few lines:
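SK-BR-3 cells treated for 3 days with compound in a 9-point series, final concentrations 10 M to 1 nM in 0.1% DMSO. Viability read by CellTiter-Glo luminescence. Relative IC50 from percent inhibition versus medium-only and DMSO controls, four-parameter logistic fit.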

Assay [4] concerns the target PI3Kα (p110/p85) kinase (wild type, "WT") (Homo sapiens, UniProt P42336). The experiment in a line: PI3Kα (p110/p85) kinase ADP-Glo Assay. Format: biochemical. Particulars: 25 uM ATP. In a few lines: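 IC50 values come from a four-parameter logistic fit of ADP-Glo chemiluminescence, reflecting ADP formed. Enzyme, lipid substrate and […] compound were preincubated 30 min at room temperature, then 25 µM ATP was added for a 120 min reaction in 50 mM HEPES pH7.5, 3 mM MgCl2.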
For orientation: ADP-Glo turns the ADP formed in a reaction into a luminescent signal.

PI3Kα (p110/p85) kinase (wild type, "WT"), sequence (P42336 whole entry): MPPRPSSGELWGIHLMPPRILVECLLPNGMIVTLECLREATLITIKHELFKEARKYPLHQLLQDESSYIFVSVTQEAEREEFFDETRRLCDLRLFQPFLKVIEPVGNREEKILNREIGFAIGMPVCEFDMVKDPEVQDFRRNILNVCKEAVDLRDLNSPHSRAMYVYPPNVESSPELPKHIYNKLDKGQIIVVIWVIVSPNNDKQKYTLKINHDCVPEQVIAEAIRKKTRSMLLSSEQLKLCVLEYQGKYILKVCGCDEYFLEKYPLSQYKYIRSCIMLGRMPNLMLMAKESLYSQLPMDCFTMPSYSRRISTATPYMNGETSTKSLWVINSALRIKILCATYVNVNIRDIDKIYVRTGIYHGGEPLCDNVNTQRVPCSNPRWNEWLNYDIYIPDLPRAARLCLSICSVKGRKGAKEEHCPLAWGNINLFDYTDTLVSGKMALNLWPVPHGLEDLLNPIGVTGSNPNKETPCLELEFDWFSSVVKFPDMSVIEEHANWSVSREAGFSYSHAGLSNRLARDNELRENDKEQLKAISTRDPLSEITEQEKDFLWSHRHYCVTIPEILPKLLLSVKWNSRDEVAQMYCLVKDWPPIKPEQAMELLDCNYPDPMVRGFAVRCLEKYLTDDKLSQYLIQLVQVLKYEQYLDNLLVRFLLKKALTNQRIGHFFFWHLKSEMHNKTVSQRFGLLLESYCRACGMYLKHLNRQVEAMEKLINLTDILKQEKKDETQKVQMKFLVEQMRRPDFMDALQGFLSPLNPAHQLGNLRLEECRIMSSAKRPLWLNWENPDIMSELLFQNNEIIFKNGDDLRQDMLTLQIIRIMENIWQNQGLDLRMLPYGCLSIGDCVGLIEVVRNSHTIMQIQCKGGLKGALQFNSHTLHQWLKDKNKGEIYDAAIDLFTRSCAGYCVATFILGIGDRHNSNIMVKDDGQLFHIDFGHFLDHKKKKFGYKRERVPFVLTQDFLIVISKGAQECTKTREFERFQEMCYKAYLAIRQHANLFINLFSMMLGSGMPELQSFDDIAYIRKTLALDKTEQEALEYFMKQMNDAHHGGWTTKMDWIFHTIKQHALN
PI3Kα (p110/p85) kinase (wild type, "WT"), sequence (P27986 whole entry partner): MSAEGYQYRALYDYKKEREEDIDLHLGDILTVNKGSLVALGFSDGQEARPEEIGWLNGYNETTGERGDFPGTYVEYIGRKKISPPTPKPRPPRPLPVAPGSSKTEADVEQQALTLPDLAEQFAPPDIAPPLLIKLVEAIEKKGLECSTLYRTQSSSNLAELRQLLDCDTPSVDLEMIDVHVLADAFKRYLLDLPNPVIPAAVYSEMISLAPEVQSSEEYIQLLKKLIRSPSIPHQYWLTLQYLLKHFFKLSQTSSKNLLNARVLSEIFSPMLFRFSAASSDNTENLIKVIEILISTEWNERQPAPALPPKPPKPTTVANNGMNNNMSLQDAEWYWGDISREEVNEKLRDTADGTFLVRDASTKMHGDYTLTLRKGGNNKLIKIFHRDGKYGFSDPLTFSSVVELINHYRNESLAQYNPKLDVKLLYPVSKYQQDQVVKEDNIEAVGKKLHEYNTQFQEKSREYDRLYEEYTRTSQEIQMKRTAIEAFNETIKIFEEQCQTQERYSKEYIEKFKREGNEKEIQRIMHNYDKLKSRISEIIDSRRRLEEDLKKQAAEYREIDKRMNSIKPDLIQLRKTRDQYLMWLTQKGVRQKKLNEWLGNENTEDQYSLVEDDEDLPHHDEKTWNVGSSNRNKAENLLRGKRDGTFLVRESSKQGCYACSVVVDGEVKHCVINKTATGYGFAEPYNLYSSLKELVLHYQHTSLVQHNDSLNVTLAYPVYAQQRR

On to `Cc1cc(C(C)Nc2ccccc2C(=O)O)c2cc(-c3ccc(C(C)(C)O)cc3)n(C)c(=O)c2c1` (stereo not drawn) [Example 51, 2-((1-(3-(4-(2-hydroxypropan-2-yl)phenyl)-2,7-dimethyl-1-oxo-1,2-dihydroisoquinolin-5-yl)ethyl)amino)benzoic acid], for which the IC50 – broadly, the point on the concentration scale where inhibition reaches its midpoint – in assay [1] is 0.0945 µM; in the assay on WT cell line SK-BR-3 [2] it was 6.45 µM; in the assay with WT cell line SK-BR-3 [3], more than 10 µM; in assay [4], 10.4 µM. For the same molecule, the “Selectivity: SK-BR-3/T-47D (cell proliferation)” value (“Selectivity: SK-BR-3/T-47D” below) in assay [1] is more than 106.

For the molecule `CC#Cc1ccc(-c2cc3c(C(C)Nc4ccccc4C(=O)O)cc(C)cc3c(=O)n2C)cc1` (stereo not drawn) [Example 52, 2-((1-(2,7-dimethyl-1-oxo-3-(4-(prop-1-yn-1-yl)phenyl)-1,2-dihydroisoquinolin-5-yl)ethyl)amino)benzoic acid], the half-inhibitory concentration (IC50) in assay [1] is 0.707 µM; with WT cell line SK-BR-3 [2] it was 7.19 µM; in the assay on WT cell line SK-BR-3 [3], more than 10 µM; in assay [4], 9.45 µM. For the same molecule, in assay [1], the “Selectivity: SK-BR-3/T-47D” value is recorded as more than 14.

For `Cc1cc(C(C)Nc2ccccc2C(=O)O)c2cc(-c3ccc4c(c3)C3CC3O4)n(C)c(=O)c2c1` (stereo not drawn) [Example 53, 2-((1-(3-(1a,6b-dihydro-1H-cyclopropa[b]benzofuran-5-yl)-2,7-dimethyl-1-oxo-1,2-dihydroisoquinolin-5-yl)ethyl)amino)benzoic acid], the IC50 in assay [1] was 0.815 µM; in the assay with WT cell line SK-BR-3 [2] it was 2.53 µM; in the assay with WT cell line SK-BR-3 [3] it was more than 10 µM; in assay [4], 4.84 µM. In addition, in assay [1], the “Selectivity: SK-BR-3/T-47D” value was more than 12.

As to `Cc1cc(C(C)Nc2ccccc2C(=O)O)c2cc(-c3ccc(C(C)(C)O)nc3)n(C)c(=O)c2c1` (stereo not drawn) [Example 55, 2-((1-(3-(6-(2-hydroxypropan-2-yl)pyridin-3-yl)-2,7-dimethyl-1-oxo-1,2-dihydroisoquinolin-5-yl)ethyl)amino)benzoic acid], the IC50 in assay [1] was 0.296 µM; in the assay with WT cell line SK-BR-3 [2], more than 10 µM; in the assay with WT cell line SK-BR-3 [3], more than 10 µM; in assay [4], 26 µM. For the same molecule, the “Selectivity: SK-BR-3/T-47D” value in assay [1] is more than 34.

In the case of `Cc1cc([C@@H](C)Nc2ccccc2C(=O)O)c2cc(-c3ccc(C(C)(C)O)nc3)n(C)c(=O)c2c1` [Example 56, (R)-2-((1-(3-(6-(2-hydroxypropan-2-yl)pyridin-3-yl)-2,7-dimethyl-1-oxo-1,2-dihydroisoquinolin-5-yl)ethyl)amino)benzoic acid], the IC50 in assay [1] is 0.0963 µM; in the assay with WT cell line SK-BR-3 [2], more than 10 µM; with WT cell line SK-BR-3 [3] it was more than 10 µM; in assay [4] it was 17.1 µM. In assay [1], the “Selectivity: SK-BR-3/T-47D” value is reported as more than 104.

Turning to `Cc1cc([C@H](C)Nc2ccccc2C(=O)O)c2cc(-c3ccc(C(C)(C)O)nc3)n(C)c(=O)c2c1` [Example 57, (S)-2-((1-(3-(6-(2-hydroxypropan-2-yl)pyridin-3-yl)-2,7-dimethyl-1-oxo-1,2-dihydroisoquinolin-5-yl)ethyl)amino)benzoic acid], the IC50 in assay [1] is more than 10 µM; with WT cell line SK-BR-3 [2], more than 10 µM; in the assay with WT cell line SK-BR-3 [3] it was more than 10 µM; in assay [4], 88.4 µM.

In the case of `COc1ncc(-c2cc3c(C(C)Nc4ccccc4C(=O)O)cc(C)cc3c(=O)n2C)cc1F` (stereo not drawn) [Example 58, 2-((1-(3-(5-fluoro-6-methoxypyridin-3-yl)-2,7-dimethyl-1-oxo-1,2-dihydroisoquinolin-5-yl)ethyl)amino)benzoic acid], the IC50 was 0.351 µM in assay [1], 3.16 µM with WT cell line SK-BR-3 [2], more than 10 µM with WT cell line SK-BR-3 [3] and 9.99 µM in assay [4]. For the same molecule, the “Selectivity: SK-BR-3/T-47D” value in assay [1] is more than 29.

With `COc1ncc(-c2cc3c([C@@H](C)Nc4ccccc4C(=O)O)cc(C)cc3c(=O)n2C)cc1F` [Example 59, (R)-2-((1-(3-(5-fluoro-6-methoxypyridin-3-yl)-2,7-dimethyl-1-oxo-1,2-dihydroisoquinolin-5-yl)ethyl)amino)benzoic acid], the half-inhibitory concentration (IC50) in assay [1] is 0.0931 µM; in the assay on WT cell line SK-BR-3 [2], more than 10 µM; in the assay with WT cell line SK-BR-3 [3], more than 10 µM; in assay [4] it was 4.31 µM. For the same molecule, the “Selectivity: SK-BR-3/T-47D” value in assay [1] is reported as more than 107.

Consider `Cc1cc(C(C)Nc2ccccc2C(=O)O)c2cc(-c3cncnc3)n(C)c(=O)c2c1` (stereo not drawn) [Example 61, 2-((1-(2,7-dimethyl-1-oxo-3-(pyrimidin-5-yl)-1,2-dihydroisoquinolin-5-yl)ethyl)amino)benzoic acid], for which the half-inhibitory concentration (IC50) in assay [1] was 0.341 µM; in the assay with WT cell line SK-BR-3 [2], more than 10 µM; in the assay with WT cell line SK-BR-3 [3], more than 10 µM; in assay [4], 19.5 µM. The “Selectivity: SK-BR-3/T-47D” value in assay [1] is more than 29.

In the case of `Cc1cc(C(C)Nc2ccccc2C(=O)O)c2cc(-c3ccc(C4(O)CC4)cc3)n(C)c(=O)c2c1` (stereo not drawn) [Example 62, 2-((1-(3-(4-(1-hydroxycyclopropyl)phenyl)-2,7-dimethyl-1-oxo-1,2-dihydroisoquinolin-5-yl)ethyl)amino)benzoic acid], the IC50 in assay [1] was 0.118 µM; in the assay with WT cell line SK-BR-3 [2], 2.97 µM; in the assay on WT cell line SK-BR-3 [3], more than 10 µM; in assay [4], 4.73 µM. For the same molecule, in assay [1], the “Selectivity: SK-BR-3/T-47D” value is on record as more than 85.

As to `Cc1cc(C(C)Nc2ccccc2C(=O)O)c2cc(-c3ccc(F)cc3)n(CC#N)c(=O)c2c1` (stereo not drawn) [Example 63, 2-((1-(2-(cyanomethyl)-3-(4-fluorophenyl)-7-methyl-1-oxo-1,2-dihydroisoquinolin-5-yl)ethyl)amino)benzoic acid], the 50% inhibitory concentration (IC50) in assay [1] was 0.205 µM; in the assay with WT cell line SK-BR-3 [2], 4.77 µM; in the assay on WT cell line SK-BR-3 [3], more than 10 µM; in assay [4], 6.14 µM. Besides, the “Selectivity: SK-BR-3/T-47D” value in assay [1] is reported as more than 49.

Turning to `Cc1cc([C@@H](C)Nc2ccccc2C(=O)O)c2cc(-c3ccc(F)cc3)n(CC#N)c(=O)c2c1` [Example 64, (R)-2-((1-(2-(cyanomethyl)-3-(4-fluorophenyl)-7-methyl-1-oxo-1,2-dihydroisoquinolin-5-yl)ethyl)amino)benzoic acid], the half-maximal inhibitory concentration (IC50) in assay [1] is 0.07 µM; with WT cell line SK-BR-3 [2], more than 10 µM; in the assay on WT cell line SK-BR-3 [3], more than 10 µM; in assay [4], 2.48 µM. Besides, in assay [1], the “Selectivity: SK-BR-3/T-47D” value is listed as more than 143.

Consider `Cc1cc(C(C)Nc2ccccc2C(=O)O)c2cc(-c3cnc(C(C)(C)O)nc3)n(C)c(=O)c2c1` (stereo not drawn) [Example 66, 2-((1-(3-(2-(2-hydroxypropan-2-yl)pyrimidin-5-yl)-2,7-dimethyl-1-oxo-1,2-dihydroisoquinolin-5-yl)ethyl)amino)benzoic acid], for which the 50% inhibitory concentration (IC50) in assay [1] was 0.908 µM; with WT cell line SK-BR-3 [2], more than 10 µM; in the assay on WT cell line SK-BR-3 [3], more than 10 µM; in assay [4] it was 21.5 µM. In assay [1], the “Selectivity: SK-BR-3/T-47D” value is reported as more than 11.

`Cc1cc([C@@H](C)Nc2ccccc2C(=O)O)c2cc(-c3cnc(C(C)(C)O)nc3)n(C)c(=O)c2c1` [Example 67, (R)-2-((1-(3-(2-(2-hydroxypropan-2-yl)pyrimidin-5-yl)-2,7-dimethyl-1-oxo-1,2-dihydroisoquinolin-5-yl)ethyl)amino)benzoic acid]: the IC50 was 0.279 µM in assay [1], more than 10 µM in the assay on WT cell line SK-BR-3 [2], more than 10 µM in the assay with WT cell line SK-BR-3 [3] and 13.6 µM in assay [4]. Also, in assay [1], the “Selectivity: SK-BR-3/T-47D” value is on record as more than 36.

As for `Cc1cc(C(C)Nc2ccccc2C(=O)O)c2cc(-c3ccc(F)cc3)n(C3CCOC3)c(=O)c2c1` (stereo not drawn) [Example 69, 2-((1-(3-(4-fluorophenyl)-7-methyl-1-oxo-2-(tetrahydrofuran-3-yl)-1,2-dihydroisoquinolin-5-yl)ethyl)amino)benzoic acid], the IC50 in assay [1] was 1.69 µM; in the assay on WT cell line SK-BR-3 [2] it was more than 10 µM; with WT cell line SK-BR-3 [3], more than 10 µM; in assay [4], 18.8 µM. Moreover, the “Selectivity: SK-BR-3/T-47D” value in assay [1] is more than 5.9.

Turning to `Cc1cc(C(C)Nc2ccccc2C(=O)O)c2cc(-c3ccc4c(c3)CN(C)C4=O)n(C)c(=O)c2c1` (stereo not drawn) [Example 70, 2-((1-(2,7-dimethyl-3-(2-methyl-1-oxoisoindolin-5-yl)-1-oxo-1,2-dihydroisoquinolin-5-yl)ethyl)amino)benzoic acid], the IC50 in assay [1] was 0.245 µM; in the assay on WT cell line SK-BR-3 [2] it was more than 10 µM; with WT cell line SK-BR-3 [3] it was more than 10 µM; in assay [4], 21.1 µM. Also, in assay [1], the “Selectivity: SK-BR-3/T-47D” value was more than 41.

For the molecule `Cc1cc(C(C)Nc2ccccc2C(=O)O)c2cc(-c3ccc(F)cc3)n(-c3nccs3)c(=O)c2c1` (stereo not drawn) [Example 71, 2-((1-(3-(4-fluorophenyl)-7-methyl-1-oxo-2-(thiazol-2-yl)-1,2-dihydroisoquinolin-5-yl)ethyl)amino)benzoic acid], the half-inhibitory concentration (IC50) was 0.267 µM in assay [1], 5.59 µM in the assay with WT cell line SK-BR-3 [2], more than 10 µM with WT cell line SK-BR-3 [3] and 14.2 µM in assay [4]. In addition, the “Selectivity: SK-BR-3/T-47D” value in assay [1] is more than 34.
